Assay results taken from patent publication US20210145000A1, “WEED CONTROL FROM APPLICATIONS OF PYRIDINE CARBOXYLIC ACID HERBICIDES AND ACETYL CoA CARBOXYLASE (ACCase) INHIBITORS” (Dow AgroSciences LLC, priority 2018, published 2021).
“And” between values parts separate entries of the source, which are not always exact repeats. Equal entries are not always repeated.

Tests used:
Test in all cases: Postemergence herbicidal activity, greenhouse, visual injury
Assay type in all cases: in vivo
[1] = tested on: kochia (Kochia scoparia, KCHSC)
Experimental: (§1) Seeds of the desired test plant species were planted in Sun Gro MetroMix® 306 planting mixture, which typically has a pH of 6.0 to 6.8 and an organic matter content of about 30 percent, in plastic pots with a surface area of 103.2 square centimeters (cm^2). When required to ensure good germination and healthy plants, a fungicide treatment and/or other chemical or physical treatment was applied. The plants were grown for 7-36 days (d) in a greenhouse with an approximate 14-hour (h) photoperiod which was maintained at about 23° C. during the day and 22° C. during the night. Nutrients and water were added on a regular basis and supplemental lighting was provided with overhead metal halide 1000-Watt lamps as necessary. The plants were employed for testing when they reached the second or third true leaf stage.
(§2) An emulsifiable concentrate (EC) formulation containing Compound 1 at 100 gai/L was prepared by combining Compound 1 with 1-butyl-2-pyrrolidinone (Tamisolve NxG; 360.5 g/L), benzyl acetate (544.6 g/L) and Agnique MBL 520L surfactant (52.9 g/L). […] The concentrated stock solution was diluted with an aqueous mixture of 1.5% v/v of Agri-dex crop oil concentrate to provide the appropriate application rates. Compound requirements are based upon a 12 milliliter (mL) application volume at a rate of 187 liters per hectare (L/ha). Spray solutions of the experimental compound mixtures were prepared by adding the stock solutions to the appropriate amount of dilution solution to form a 12 mL spray solution in two-way combinations. Formulated compounds were applied to the plant material with an overhead Mandel track sprayer equipped with 8002E nozzles calibrated to deliver 187 L/ha over an application area of 0.503 square meters (m^2) at a spray height of 18 inches (43 centimeters (cm)) above average plant canopy. Control plants were sprayed in the same manner with the solvent blank. Application rates for component (a) are in g ae/ha, and application rates for component (b) are in g ai/ha.
(§3) The treated plants and control plants were placed in a greenhouse as described above and watered by sub-irrigation to prevent wash-off of the test compounds. After 20-22 d, the condition of the test plants as compared with that of the control plants was determined visually and scored on a scale of 0 to 100 percent where 0 corresponds to no injury and 100 corresponds to complete kill. […] The Colby method was used to determine the herbicidal effects expected from the mixtures.

[2] = tested on: poinsettia (Euphorbia heterophylla, EPHHL)
Experimental: as §1, §2, §3

[3] = tested on: chickweed (Stellaria media, STEME); conditions: post-emergence, read-out: Effect (% visual injury) Obs
Experimental: as §1, §2, §3

[4] = tested on: winter rape (Brassica napus, BRSNW); conditions: post-emergence, read-out: Effect (% visual injury) Obs
Experimental: as §1, §2, §3

[5] = tested on: barnyardgrass (Echinochloa crus-galli, ECHCG); conditions: post-emergence, read-out: Effect (% visual injury) Obs
Experimental: (§4) The plants were grown for 7-36 days (d) in a greenhouse with an approximate 14-hour (h) photoperiod which was maintained at about 23° C. during the day and 22° C. during the night. Nutrients and water were added on a regular basis and supplemental lighting was provided with overhead metal halide 1000-Watt lamps as necessary. The plants were employed for testing when they reached the second or third true leaf stage.
(§5) Spray solutions of the experimental compound mixtures were prepared by adding the stock solutions to the appropriate amount of dilution solution to form a 12 mL spray solution in two-way combinations. […] Control plants were sprayed in the same manner with the solvent blank. Application rates for component (a) are in g ae/ha, and application rates for component (b) are in g ai/ha.
as §3

[6] = tested on: winter wheat (Triticum aestivum, TRZAW); conditions: post-emergence, read-out: Effect (% visual injury) Obs
Experimental: as §4, §5, §3

[7] = tested on: wild pansy (Viola tricolor, VIOTR); conditions: post-emergence, read-out: Effect (% visual injury) Obs
Experimental: as §4, §5, §3

[8] = tested on: soybean (Glycine max, GLXMA); conditions: post-emergence, read-out: Effect (% visual injury) Obs
Experimental: as §4, §5, §3

[9] = tested on: wild oat (Avena fatua, AVEFA); conditions: post-emergence, read-out: Effect (% visual injury) Obs
Experimental: as §4, §5, §3

[10] = tested on: pigweed (Amaranthus retroflexus, AMARE); conditions: post-emergence, read-out: Effect (% visual injury) Obs
Experimental: as §4, §5, §3

[11] = tested on: blackgrass (Alopecurus myosuroides, ALOMY); conditions: post-emergence, read-out: Effect (% visual injury) Obs
Experimental: as §4, §5, §3

[12] = tested on: maize (Zea mays, ZEAMX); conditions: post-emergence, read-out: Effect (% visual injury) Obs
Experimental: as §4, §5, §3

[13] = tested on: common lambsquarters (Chenopodium album L., CHEAL); conditions: post-emergence, read-out: Effect (% visual injury) Obs
Experimental: as §4, §5, §3

[14] = tested on: wild buckwheat (Polygonum convolvulus, POLCO)
Experimental: as §4, §5, §3

[15] = tested on: rice (Oryza sativa, ORYSA); conditions: post-emergence, read-out: Effect (% visual injury) Obs
Experimental: as §4, §5, §3

[16] = tested on: velvetleaf (Abutilon theophrasti, ABUTH); conditions: post-emergence, read-out: Effect (% visual injury) Obs
Experimental: as §4, §5, §3

[17] = tested on: giant foxtail (Setaria faberi, SETFA); conditions: post-emergence, read-out: Effect (% visual injury) Obs
Experimental: as §4, §5, §3

[18] = tested on: grain sorghum (Sorghum vulgare, SORVU); conditions: post-emergence, read-out: Effect (% visual injury) Obs
Experimental: as §4, §5, §3

[19] = tested on: large crabgrass (Digitaria sanguinalis, DIGSA); conditions: post-emergence, read-out: Effect (% visual injury) Obs
Experimental: as §4, §5, §3

[20] = tested on: sunflower (Helianthus annuus, HELAN); conditions: post-emergence, read-out: Effect (% visual injury) Obs
Experimental: as §4, §5, §3

[21] = tested on: ivyleaf morningglory (Ipomoea hederacea, IPOHE)
Experimental: as §1, §2, §3

[22] = Clodinafop-propargyl 30 g ai/ha

## CCCC(=NOCC)C1=C(O)CC(CC(C)SCC)CC1=O (racemic) [Sethoxydim, (±)-(EZ)-2-(1-ethoxyiminobutyl)-5-[2-(ethylthio)propyl]-3-hydroxycyclohex-2-enone]
[1]; Sethoxydim 140 g ai/ha
  Effect (% visual injury) Obs: 0%
[2]; Sethoxydim 140 g ai/ha
  Effect (% visual injury) Obs: 10%
[3]
  pest or weed control at 140 g/ha: 10%
[4]
  plant injury at 140 g/ha: 0%
[5]
  pest or weed control at 140 g/ha: 50%
[6]
  plant injury at 140 g/ha: 60%
[7]
  pest or weed control at 140 g/ha: 5%
[8]
  plant injury at 140 g/ha: 0%
[9]
  pest or weed control at 140 g/ha: 85%
[10]
  pest or weed control at 140 g/ha: 0%
[11]
  pest or weed control at 140 g/ha: 95%
[12]
  plant injury at 140 g/ha: 75%
[13]
  pest or weed control at 140 g/ha: 5%
[14]; Fallopia convolvulus, post-emergence, read-out: Effect (% visual injury) Obs
  pest or weed control at 140 g/ha: 0%
[15]
  plant injury at 140 g/ha: 75%
[16]
  pest or weed control at 140 g/ha: 0%
[17]
  pest or weed control at 140 g/ha: 85%
[18]
  plant injury at 140 g/ha: 100%
[19]
  pest or weed control at 140 g/ha: 60%
[20]
  plant injury at 140 g/ha: 0%

## C#CCOC(=O)[C@@H](C)Oc1ccc(Oc2ncc(Cl)cc2F)cc1 [Clodinafop-propargyl, prop-2-ynyl (R)-2-[4-(5-chloro-3-fluoro-2-pyridyloxy)phenoxy]propionate]
[3]; [22]
  pest or weed control at 30 g/ha: 0%
[21]; [22]
  Effect (% visual injury) Obs: 0%
[4]; [22]
  plant injury at 30 g/ha: 0%
[5]; [22]
  pest or weed control: 100%
[6]; [22]
  plant injury: 0%
[8]; [22]
  plant injury: 0%
[9]; [22]
  pest or weed control: 90%
[10]; [22]
  pest or weed control: 0%
[11]; [22]
  pest or weed control: 10%
[12]; [22]
  plant injury: 100%
[14]; Fallopia convolvulus, post-emergence, Clodinafop-propargyl 30 g ai/ha, read-out: Effect (% visual injury) Obs
  pest or weed control: 0%
[15]; [22]
  plant injury: 90%
[16]; [22]
  pest or weed control: 0%
[17]; [22]
  pest or weed control: 98%
[18]; [22]
  plant injury: 100%
[19]; [22]
  pest or weed control: 95%
[20]; [22]
  plant injury: 0%

## Nc1c(F)c(-c2ccc3cc[nH]c3c2F)nc(C(=O)O)c1Cl [Compound 1]
[1]; Compound 1 5 g ai/ha
  Effect (% visual injury) Obs: 60%
[1]; Compound 1 10 g ai/ha
  Effect (% visual injury) Obs: 60%
[2]; Compound 1 5 g ai/ha
  Effect (% visual injury) Obs: 100% and 97%
[2]; Compound 1 10 g ai/ha
  Effect (% visual injury) Obs: 97%
[3]; Compound 1 10 g ai/ha
  pest or weed control at 10 g/ha: 70%
[21]; Compound 1 5 g ai/ha
  Effect (% visual injury) Obs: 10%
[4]; Compound 1 5 g ai/ha
  plant injury at 5 g/ha: 60%
[4]; Compound 1 10 g ai/ha
  plant injury at 10 g/ha: 45%
[5]; Compound 1 10 g ai/ha
  pest or weed control at 10 g/ha: 60%
[6]; Compound 1 5 g ai/ha
  plant injury at 5 g/ha: 0%
[6]; Compound 1 10 g ai/ha
  plant injury at 10 g/ha: 0%
[7]; Compound 1 10 g ai/ha
  pest or weed control at 10 g/ha: 10%
[8]; Compound 1 5 g ai/ha
  plant injury at 5 g/ha: 100%
[8]; Compound 1 10 g ai/ha
  plant injury at 10 g/ha: 100%
[9]; Compound 1 5 g ai/ha
  pest or weed control at 5 g/ha: 0%
[9]; Compound 1 10 g ai/ha
  pest or weed control at 10 g/ha: 0%
[10]; Compound 1 10 g ai/ha
  pest or weed control at 10 g/ha: 97%
[11]; Compound 1 5 g ai/ha
  pest or weed control at 5 g/ha: 0%
[11]; Compound 1 10 g ai/ha
  pest or weed control at 10 g/ha: 0%
[12]; Compound 1 5 g ai/ha
  plant injury at 5 g/ha: 0%
[12]; Compound 1 10 g ai/ha
  plant injury at 10 g/ha: 0%
[13]; Compound 1 5 g ai/ha
  pest or weed control at 5 g/ha: 100%
[13]; Compound 1 10 g ai/ha
  pest or weed control at 10 g/ha: 100%
[14]; Compound 1 10 g ai/ha
  Effect (% visual injury) Obs: 75%
[14]; Fallopia convolvulus, post-emergence, Compound 1 10 g ai/ha, read-out: Effect (% visual injury) Obs
  pest or weed control at 10 g/ha: 75%
[15]; Compound 1 5 g ai/ha
  plant injury at 5 g/ha: 0%
[15]; Compound 1 10 g ai/ha
  plant injury at 10 g/ha: 10%
[16]; Compound 1 5 g ai/ha
  pest or weed control at 5 g/ha: 50%
[16]; Compound 1 10 g ai/ha
  pest or weed control at 10 g/ha: 60%
[17]; Compound 1 10 g ai/ha
  pest or weed control at 10 g/ha: 50%
[18]; Compound 1 10 g ai/ha
  plant injury at 10 g/ha: 50%
[19]; Compound 1 5 g ai/ha
  pest or weed control at 5 g/ha: 0%
[19]; Compound 1 10 g ai/ha
  pest or weed control at 10 g/ha: 10%
[20]; Compound 1 5 g ai/ha
  plant injury at 5 g/ha: 95%
[20]; Compound 1 10 g ai/ha
  plant injury at 10 g/ha: 90%
